Values of other authors as cited in publication PMC3263412 (International Journal of Nanomedicine, 2012).

Structure (SMILES): CCCCCCCCCCCCCCCC[N+](C)(C)C [CTAB, Cetyltrimethyl ammonium bromide]
- cytotoxicity: marked cytotoxicity
